The values that follow are results of earlier work, collected in patent US20080213362A1, “COMPOSITIONS AND METHODS USING TORSEMIDE” (priority 2007, published 2008).

The conditions of series [1]: 2.5 mg once daily.
The conditions of series [2]: diabetic or pre-diabetic patient, even during treatment with an anti-diabetic agent.

For `Cc1cccc(Nc2ccncc2S(=O)(=O)NC(=O)NC(C)C)c1` [torsemide], the anti-hypertensive effects result in series [1] was “statistically significant anti-hypertensive effects”. Further, the “effect on blood sugar levels” value in series [2] is on record as “worsen blood sugar levels”.
